Laboratory results from publication PMC6494957 (Frontiers in Microbiology, 2019).
Where two headings read alike, the source gives them in different places.

Legend:
P. aeruginosa ATCC 27853 = assay: microbe, parasite or virus in culture; details: for DRI EDTA:ROB: DRI of the labelled component; for MIC: Pseudomonas aeruginosa
How it was run: (§1)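 Each test includes ampicillin or gentamicin MICs as internal control. Robenidine–PMBN combinations are tested in LB broth against a 1-5 × 10^6 CFU/ml inoculum suspension, incubated 24 h at 37°C, and interactions expressed as FICI.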

P. mirabilis ATCC 43071 = assay: microbe, parasite or virus in culture; details: for DRI EDTA:ROB: DRI of the labelled component; for MIC in combination EDTA:ROB: concentration of the labelled component; for MIC: Proteus mirabilis
How it was run: as §1

[1] = system: P. mirabilis (n = 21) clinical isolates from otitis externa cases in dogs; assay: MIC/MBC and checkerboard, canine otitis externa isolates; format: cell-based, Proteus mirabilis; details: for MIC50 / MIC90: Proteus mirabilis; for MIC50, in combination of EDTA and ROB / MIC90, in combination of EDTA and ROB / MIC range, in combination of EDTA and ROB: concentration of the labelled component
Source text: Escherichia coli ATCC 25922, E. coli ATCC 11229, P. aeruginosa ATCC 27853, P. aeruginosa PA01, Pseudomonas putida ATCC 17428, P. mirabilis ATCC 43071, K. pneumoniae ATCC 13883, A. baumannii ATCC 19606, and A. baumannii ATCC 12457 were used for preliminary susceptibility testing and combination experiments. S. aureus ATCC 29213 and S. pneumoniae ATCC 49619 were used as internal quality controls. A variety of bacterial organisms from both human and canine infections were investigated in this study (n = 119 isolates in total). Twenty-eight clinical Acinetobacter spp. isolates were obtained from cases of human skin and soft tissue infections, including 18 Acinetobacter baumannii and 10 A. calcoaceticus, kindly provided by a person (Institute of Medical and Veterinary Science, South Australia). […] Ninety-one clinical isolates were obtained from cases of canine otitis externa, including seven methicillin-susceptible S. pseudintermedius (MSSP), 13 multidrug- and methicillin-resistant S. pseudintermedius (MRSP) ([Saputra et al., 2017]), 20 beta-haemolytic Streptococcus spp., 30 P. aeruginosa (10 of them resistant to gentamicin and 21 P. mirabilis isolates). These isolates were obtained from the bacterial collection of the national survey of antimicrobial resistance in animals conducted in Australia. Swab samples from dogs with signs of otitis externa were collected by veterinarians and submitted to government, private or university diagnostic laboratories throughout Australia. After routine bacterial identification and the removal of confidential information, the participating veterinary diagnostic laboratories submitted the bacteria and their clinical information to PC2 Laboratories, Australian Centre for Antimicrobial Resistance Ecology, School of Animal and Veterinary Sciences, University of Adelaide, Roseworthy Campus, Roseworthy, SA, Australia, for further study. Thus, animal ethics approval was not required in this study. These organisms were identified to species level using biochemical testing and MALDI-TOF mass spectrometry (Bruker, Preston, VIC, Australia).
The MIC for ampicillin or gentamicin against each isolate was determined for each test to serve as an internal quality control. The MICs of isolates were determined by visual reading and using an EnSpire Multimode Plate Reader 2300 atA600nm.
Briefly, 10 μl aliquots from each duplicate well from the MIC assays (starting from the MIC for each compound) were inoculated onto a sheep blood agar (SBA) plate and incubated at 37°C.
Briefly, antimicrobial stock solutions for robenidine and PMBN were prepared at a concentration of 12.8 mg/ml in DMSO. […] A 1 μl aliquot of the first compound from each combination was dispensed along the abscissa (from row A to G) of the 96-well microplate, while the second compound was dispensed along the ordinate (from column 12 to column 3) using an electronic multichannel pipette followed by 89 μl of LB broth. Each well of the plate was inoculated with an aliquot of 10 μl bacterial suspension at a concentration of 1-5 × 10^6 colony forming units (CFU) per ml. Subsequently, the plate was incubated at 37°C for 24 h. The fractional inhibitory concentration index (FICI) described the results of the combinations, and was calculated utilizing the following formula:
DRI = MIC of drug alone/MIC of drug in combination

[2] = system: preformed biofilms of P. aeruginosa PA01 and clinical isolates of P. aeruginosa; assay: Antibiofilm susceptibility (MBEC device) and biofilm checkerboard; format: cell-based, Pseudomonas aeruginosa
Procedure: (§2) Briefly, biofilms of P. aeruginosa PA01, two clinical isolates of P. aeruginosa isolates and two clinical isolates of S. pseudintermedius were formed by inoculating 150 μl of 10^7 CFU/ml of each bacterial suspension in the MBEC^TM device. The inoculated device was aerobically incubated on an orbital shaker at 37°C (OM11, Ratek Instruments Pty Ltd., Australia) for 24 h to produce equivalent (Uniform) biofilms on all pegs. […] Following antimicrobial challenge, the biofilms were rinsed twice with phosphate buffered saline (pH = 7) and disrupted via sonication (Soniclean, Model 160TD, Australia) for 10 min into the recovery medium. Viable cell counts were determined for recovered cells (colony-forming units per peg) after preparing a serial dilution and plating 10 μl in duplicates of each dilution onto plate count agar. Viable counts were then expressed as a percentage of the mean CFU of growth controls. MBEC was defined as the lowest concentration of antimicrobial agent that eradicates the biofilms recovered from the antimicrobial challenge.
(§3) Briefly, the MBEC^TM High-throughput assay system (MBEC^TM BioProducts, Innovotech, Canada) was used for the preparation of Gram-positive and Gram-negative biofilm producing bacteria as described above for antibiofilm susceptibility testing. […] Subsequently, the plate was incubated at 37°C for 24 h.

[3] = system: preformed biofilms of two clinical isolates of S. pseudintermedius; assay: as above; format: cell-based, Staphylococcus pseudintermedius
Procedure: as §2, §3

HaCaT cell line = assay: In vitro cytotoxicity, WST-1; format: cell-based; details: Homo sapiens, 10% FBS, read-out: IC50, single agent
Procedure: Cells were maintained in Dulbecco’s modified Eagle’s medium (DMEM) with 10% fetal bovine serum (FBS) and 1% PenStrep (100 U/mL Penicillin and 100 μg/mL Streptomycin) at 37°C with 5% CO2. Cells were serially passaged at ∼80% confluence ∼ every 4 days. Assays were performed in duplicate in 96 well plates seeded with ∼25,000 cells per well. […] Briefly, the antimicrobials were prepared by performing a twofold serial dilution at 100× of tested concentration in DMSO. Subsequently, a 1 μl aliquot of each concentration was transferred to a sterile 96-well plate containing fresh DMEM with either 10% FBS. After mixing four times, the media aliquots with different concentrations of antimicrobial were transferred to each well of the 96-well plate seeded with cells, using wells containing 1–2% DMSO only as control. To determine the effect of FBS on the cytotoxicity of each compound, DMEM with 40% FBS containing different concentrations of antimicrobial was prepared as described above. After 24 h of exposure, WST-1 reagent (Cell Proliferation Assay reagent, Roche) at a concentration of 10% was added to each well. Absorbance at A450 nm on a Multiskan Ascent 354 Spectrophotometer (Labsystems) was measured after 1 h of incubation. The IC50 value was determined for each compound against each cell line via non-linear regression (three parameters) using GraphPad Prism v6 software.

[4] = P. aeruginosa ATCC 27853, concentration of the labelled component
[5] = ATCC27853, read-out: MIC, single drug
[6] = ATCC43071, read-out: MIC, single drug
[7] = canine otitis externa, read-out: MIC50, single drug
[8] = canine otitis externa, read-out: MIC90, single drug

Structure (SMILES)	DRI EDTA:ROB (P. aeruginosa ATCC 27853; P. aeruginosa ATCC 27853)	MIC in combination EDTA:ROB (P. aeruginosa ATCC 27853; [4]) [mg/L]	MIC (P. aeruginosa ATCC 27853; [5]) [mg/L]	DRI EDTA:ROB (P. mirabilis ATCC 43071; P. mirabilis ATCC 43071)	MIC in combination EDTA:ROB (P. mirabilis ATCC 43071; P. mirabilis ATCC 43071) [mg/L]	MIC (P. mirabilis ATCC 43071; [6]) [mg/L]	MIC50 [1, 7] [mg/L]	MIC90 [1, 8] [mg/L]	MIC range, single drug ([1]; canine otitis externa) [mg/L]	MIC50, in combination of EDTA and ROB [1] [mg/L]	MIC90, in combination of EDTA and ROB [1] [mg/L]	MIC range, in combination of EDTA and ROB [1] [mg/L]	IC50 (HaCaT cell line)	other results
N=C(N/N=C/c1ccc(Cl)cc1)N/N=C/c1ccc(Cl)cc1 [ROB, robenidine]	256	1.25	> 256	256	1.25	> 256	> 256	> 256	>256	0.125	0.5	0.125 to 4	14 mg/L	MIC, single drug (P. aeruginosa ATCC 27853; P. aeruginosa ATCC 27853): >256 mg/L; MIC in combination PMBN:ROB (P. aeruginosa ATCC 27853; [4]): 1 mg/L; MIC, single drug (P. mirabilis ATCC 43071; P. mirabilis ATCC 43071): >256 mg/L; MBC/MIC, ROB in combination with EDTA [1]: ≥2; antibiofilm activity ([2]; P. aeruginosa biofilms, up to 128 μg/ml, 24 h): did not show any antibiofilm activity; antibiofilm activity ([3]; S. pseudintermedius biofilms, up to 128 μg/ml, 24 h): did not show any antibiofilm activity
O=C(O)CN(CCN(CC(=O)O)CC(=O)O)CC(=O)O [EDTA, ethylenediaminetetraacetic acid]	2	1900	3800	1	228	228	380	750	190 to 750	380	380	190 to 380	3.8 mM	MIC in combination EDTA:ROB (mM in parentheses) (P. aeruginosa ATCC 27853; P. aeruginosa ATCC 27853, EDTA component): 5 mM; MIC (P. aeruginosa ATCC 27853; ATCC27853, read-out: MIC, single drug (mM in parentheses)): 10 mM; MIC in combination EDTA:ROB (mM in parentheses) (P. mirabilis ATCC 43071; P. mirabilis ATCC 43071, EDTA component): 0.6 mM; MIC (P. mirabilis ATCC 43071; ATCC43071, read-out: MIC, single drug (mM in parentheses)): 0.6 mM; MBC/MIC row, EDTA in combination [1]: 750 mg/L; MBC/MIC row, EDTA in combination (mM in parentheses) [1]: 2 mM; MIC range, single drug (mM in parentheses) [1]: 0.5 to 2 mM; MIC50, in combination of EDTA and ROB (mM in parentheses) ([1]; EDTA component): 1 mM; MIC90, in combination of EDTA and ROB (mM in parentheses) ([1]; EDTA component): 1 mM; MIC range, in combination of EDTA and ROB (mM in parentheses) ([1]; EDTA component): 0.5 to 1 mM; MIC50 ([1]; read-out: MIC50, single drug (mM in parentheses)): 1 mM; MIC90 ([1]; read-out: MIC90, single drug (mM in parentheses)): 2 mM; concentration with significant disruption of 24 h preformed biofilms ([2]; Gram-negative (P. aeruginosa) biofilms, vs growth control): 1 mM; concentration with significant disruption of 24 h preformed biofilms ([3]; Gram-positive (S. pseudintermedius) biofilms, vs growth control): 1 mM
